In US12522597B2, “Methods and compositions for modulating splicing” (Skyhawk Therapeutics, Inc., priority 2019, dated 2026):

How the values were obtained:
[1] = test system: MDR1-MDCK cell monolayers; assay: MDCK-MDR1 permeability assay (BBB penetration potential); type: in vitro ADME; conditions: dog, MDCK-MDR1, 120 min, 5 μM, pH 7.4
Method: (§1) Each determination is performed in duplicate. […] Analytical conditions are outlined below.

MDR1 = assay: as above; type: in vitro ADME; conditions: dog; for efflux ratio at 120 min, 5 μM: MDCK-MDR1, pH 7.4, MDCK-MDR1: Efflux; for Papp A→B at 120 min, 5 μM: MDCK-MDR1, pH 7.4, MDCK-MDR1: Papp A-B; for Papp B→A at 120 min, 5 μM: MDCK-MDR1, pH 7.4, MDCK-MDR1: Papp B-A
Method: as §1

mHTT protein = mHTT protein assay (2B7-MW1, Mesoscale Discovery); type: cell-based, human; conditions: GM04724 (CAG 70/20) Huntington's disease patient lymphoblast cells, 48 hours, 2B7-MW1 MSD; read-out: HTT Potency - Protein EC50 mHTT (average)
Method: Compounds are tested on GM04724 (CAG 70/20) Huntington's disease patient lymphoblast cells at doses ranging from 10 μM to 0.6 nM. 4,500 cells/well are seeded in 384 well plates. One plate replica is carried out for parallel viability testing by CellTiter Glo (CTG). Compounds are incubated for 48 hours, mHTT protein levels are assessed by the 2B7-MW1 assay via Mesoscale Discovery (MSD) as previously reported (Macdonald et al., 2014). The antibody pair is comprised of previously characterized monoclonals (2B7 and MW1) interrogating two regions for HTT conformation and biological properties: the N17 domain and the polyQ domain (Baldo et al., 2012; Ko et., 2001). 2B7-MW1 is dependent on subject/animal specific levels of HTT at the time of treatment. 2B7-MW1 is dependent on polyQ expansion (e.g., the higher the expansion the higher the signal) and on mHTT size (e.g., a similar polyQ will give higher signal with smaller HTT size). The viability readout is carried out by CTG according to the manufacturer's instructions.

| SMILES | MDCK-MDR1: % Recov A-B [1] [%] | MDCK-MDR1: % Recov B-A [1] [%] | efflux ratio at 120 min, 5 μM (MDR1) | Papp A→B at 120 min, 5 μM (MDR1) [×10⁻⁶ cm/s] | Papp B→A at 120 min, 5 μM (MDR1) [×10⁻⁶ cm/s] | EC50 (mHTT protein) [nM] |
| --- | --- | --- | --- | --- | --- | --- |
| C[C@]12CC[C@](C)(N1)[C@H](F)[C@H](Oc1ccc(-c3ccc(C#N)cc3O)nn1)C2 (single isomer, unassigned) [152-ENT1] | 88 | 98 | 5 | 11.6 | 59.4 | 501 to 10000 |
| C[C@@]12CC[C@@](C)(N1)[C@@H](F)[C@@H](Oc1ccc(-c3ccc(C#N)cc3O)nn1)C2 (single isomer, unassigned) [152-ENT2] | 92 | 100 | 5 | 10 | 53 | 501 to 10000 |
| Oc1cc(-c2nnco2)c(F)cc1-c1ccc(O[C@@H]2C[C@H]3CC[C@H](N3)[C@@H]2F)nn1 (single isomer, unassigned) [142-ENT2] | 101 | 121 | 6 | 9.4 | 54.5 | 51 to 100 |
| Oc1cc(-c2ccccn2)ccc1-c1ccc(O[C@@H]2C[C@H]3CCC[C@H](N3)[C@@H]2F)nn1 (single isomer, unassigned) [77-ENT1] | 52 | 70 | 4 | 5.64 | 22.7 | 101 to 500 |
| N#Cc1ccc(-c2ccc(O[C@@H]3C[C@H]4CC[C@H](N4)[C@@H]3F)nn2)c(O)c1 (single isomer, unassigned) [111-ENT1] | 90 | 92 | 3 | 15.6 | 44.7 | 501 to 10000 |
| Cn1cc(-c2ccc(-c3ccc(O[C@H]4C[C@H]5CCC[C@H](N5)[C@H]4F)nn3)c(O)c2)cn1 (single isomer, unassigned) [122-ENT1] | 50 | 66 | 5 | 4.73 | 23.3 | 501 to 10000 |
| Cn1cnc(-c2ccc(-c3ccc(O[C@@H]4C[C@H]5CCC[C@H](N5)[C@@H]4F)nn3)c(O)c2)cc1=O (single isomer, unassigned) [138-ENT1] | 86 | 98 | 47 | 1.14 | 53.9 | 51 to 100 |
| CNC(=O)c1ccc2cc(-c3ccc(O[C@H]4C[C@]5(C)CCC[C@@](C)(N5)[C@H]4F)nn3)c(O)cc2n1 (single isomer, unassigned) [137-ENT1] | 58 | 70 | 16 | 2.56 | 40.1 | 0.01 to 15 |
| Cn1ccc(-c2ccc(-c3ccc(O[C@@H]4C[C@H]5CCC[C@H](N5)[C@@H]4F)nn3)c(O)c2)nc1=O (single isomer, unassigned) [107-ENT1] | 90 | 90 | 90 | 0.11 | 10 | 101 to 500 |
| Cc1nnc(-c2ccc(-c3ccc(O[C@H]4C[C@@H]5CCC[C@@H](N5)[C@H]4F)nn3)c(O)c2)s1 (single isomer, unassigned) [95-ENT2] | 78 | 87 | 9 | 3.59 | 33.1 | 101 to 500 |
| Cc1cc(-c2ccc(-c3ccc(O[C@H]4C[C@@H]5CCC[C@@H](N5)[C@H]4F)nn3)c(O)c2)cnn1 (single isomer, unassigned) [90-ENT2] | 101 | 97 | 34 | 1.92 | 64.6 | 101 to 500 |
| Cc1cncc(-c2ccc(-c3ccc(O[C@H]4C[C@@H]5CCC[C@@H](N5)[C@H]4F)nn3)c(O)c2)n1 (single isomer, unassigned) [102-ENT2] | 86 | 89 | 6 | 7.93 | 48.4 | 101 to 500 |
| O=c1cc(-c2ccc(-c3ccc(O[C@H]4C[C@@H]5CCC[C@@H](N5)[C@H]4F)nn3)c(O)c2)ccn1CF (single isomer, unassigned) [106-ENT2] | 79 | 80 | 39 | 1.45 | 56.7 | 51 to 100 |
| Cc1cnc(-c2ccc(-c3ccc(O[C@H]4C[C@@H]5CCC[C@@H](N5)[C@H]4F)nn3)c(O)c2)cn1 (single isomer, unassigned) [78-ENT2] | 56 | 83 | 4 | 7.09 | 30 | 101 to 500 |
| Oc1cc2cnccc2cc1-c1ccc(O[C@H]2C[C@@H]3CCC[C@@H](N3)[C@H]2F)nn1 (single isomer, unassigned) [80-ENT2] | 72 | 84 | 3 | 9.2 | 32.1 | 501 to 10000 |
| Oc1cc(-n2ccnc2)ccc1-c1ccc(O[C@H]2C[C@@H]3CC[C@@H](N3)[C@H]2F)nn1 (single isomer, unassigned) [36-ENT2] | 61 | 73 | 5 | 5.41 | 28.9 | 51 to 100 |
| Cc1nc(-c2ccc(-c3ccc(O[C@@H]4C[C@H]5CCC[C@H](N5)[C@@H]4F)nn3)c(O)c2)cs1 (single isomer, unassigned) [71-ENT2] | 50 | 67 | 6 | 5.78 | 33.1 | 16 to 50 |
| Cc1cncc(-c2ccc(-c3ccc(O[C@@H]4C[C@H]5CCC[C@H](N5)[C@@H]4F)nn3)c(O)c2)c1 (single isomer, unassigned) [89-ENT1] | 68 | 76 | 6 | 6.05 | 33.8 | 501 to 10000 |
| Oc1cc2ncccc2cc1-c1ccc(O[C@H]2C[C@@H]3CCC[C@@H](N3)[C@H]2F)nn1 (single isomer, unassigned) [103-ENT2] | 98 | 106 | 12 | 5.15 | 59.9 | 501 to 10000 |
| Cc1ccc(-c2ccc(-c3ccc(O[C@H]4C[C@@H]5CCC[C@@H](N5)[C@H]4F)nn3)c(O)c2)cn1 (single isomer, unassigned) [67-ENT2] | 59 | 76 | 6 | 3.34 | 20.7 | 101 to 500 |
| Cc1cc(-c2ccc(-c3ccc(O[C@@H]4C[C@H]5CCC[C@H](N5)[C@@H]4F)nn3)c(O)c2)co1 (single isomer, unassigned) [98-ENT1] | 9 | 47 | 1 | 1.13 | 1.39 | 101 to 500 |
| Cc1cc(-c2ccc(-c3ccc(O[C@@H]4C[C@H]5CCC[C@H](N5)[C@@H]4F)nn3)c(O)c2)cnn1 (single isomer, unassigned) [90-ENT1] | 103 | 99 | 33 | 1.82 | 60.5 | 101 to 500 |
| Cc1nnc(-c2ccc(-c3ccc(O[C@H]4C[C@@H]5CCC[C@@H](N5)[C@H]4F)nn3)c(O)c2)o1 (single isomer, unassigned) [94-ENT2] | 93 | 87 | 7 | 6.35 | 46.7 | 101 to 500 |
| Cn1ccc(=O)c2cc(-c3ccc(O[C@H]4C[C@]5(C)CCC[C@@](C)(N5)[C@H]4F)nn3)c(O)cc21 (single isomer, unassigned) [131-ENT1] | 95 | 99 | 70 | 0.71 | 49.5 | 501 to 10000 |
| Oc1cc2cccnc2cc1-c1ccc(O[C@H]2C[C@@H]3CCC[C@@H](N3)[C@H]2F)nn1 (single isomer, unassigned) [105-ENT2] | 91 | 70 | 6 | 6.58 | 37.2 | 101 to 500 |
